Like-named read-outs stand apart in the source and are kept apart here.
Biological target: T1, Full-length glucokinase (beta cell isoform) (Homo sapiens, UniProt P35557)
T1 construct: Full-length glucokinase (beta cell isoform) was His-tagged at N-terminus; His tag (N); made in house; host or cells: E. coli BL21(DE3), pBCGK vector
T1 sequence (P35557 1-465): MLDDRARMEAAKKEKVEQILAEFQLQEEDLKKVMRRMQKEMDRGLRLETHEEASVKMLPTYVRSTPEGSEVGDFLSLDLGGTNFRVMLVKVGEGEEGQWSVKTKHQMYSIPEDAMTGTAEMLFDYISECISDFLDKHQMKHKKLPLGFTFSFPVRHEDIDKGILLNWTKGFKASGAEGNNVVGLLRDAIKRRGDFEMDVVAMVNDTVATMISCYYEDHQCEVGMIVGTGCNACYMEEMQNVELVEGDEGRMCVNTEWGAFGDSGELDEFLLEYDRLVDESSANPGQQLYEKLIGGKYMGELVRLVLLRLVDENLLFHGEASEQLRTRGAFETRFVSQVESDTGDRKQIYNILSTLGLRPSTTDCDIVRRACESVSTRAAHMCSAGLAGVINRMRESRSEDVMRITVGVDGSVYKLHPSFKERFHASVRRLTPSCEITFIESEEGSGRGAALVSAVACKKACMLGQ
Assay: Glucokinase activation assay (PK/LDH-coupled, NADH depletion at 340 nm)
Assay type: biochemical
Settings: for Emax: % max activation = (Va/Vo−1)×100 from fit, pH 7.1, read-out: Maximum Activation (%)
Protocol: Full-length glucokinase (beta cell isoform) was His-tagged at N-terminus and purified by a Ni column followed by size exclusion chromatography. A 320 mL column was packed in house using Superdex75 (Amersham Pharmacia, Carlsbad, Calif.) preparation grade resin. Glucose was obtained from Calbiochem (San Diego, Calif.) and other reagents were purchased from Sigma-Aldrich (St. Louis, Mo.).
All assays were performed in a Corning 384-well plate using Spectramax PLUS spectrophotometer (Molecular Devices, Sunnyvale, Calif.) at room temperature. The final assay volume was 40 ∥L. The buffer conditions used in this assay were as follows: 50 mM HEPES, 5 mM glucose, 2.5 mM ATP, 3.5 mM MgCl2, 0.7 mM NADH, 2 mM dithiothreitol, 1 unit/mL pyruvate kinase/lactate dehydrogenase (PK/LDH), 0.2 mM phosphoenolpyruvate, and 25 mM KCl. The buffer pH was 7.1. The test compound in dimethylsulfoxide solution was added to the buffer and mixed by a plate shaker for 7.5 minutes. The final concentration of dimethylsulfoxide introduced into the assay was 0.25%.
Glucokinase was added to the buffer mixture to initiate the reaction in the presence and absence of compound. The reaction was monitored by absorbance at 340 nm due to the depletion of NADH. The initial reaction velocity was measured by the slope of a linear time course of 0-300 seconds. The percentage of maximum activation was calculated by the following equation: % Maximum Activation=(Va/Vo−1)×100; wherein each of Va and Vo is defined as the initial reaction velocity in the presence and absence of the tested compound, respectively.
The glucokinase activities were measured as a function of compound concentrations.

[1] = 5 mM glucose, 2.5 mM ATP, pH 7.1, room temperature, single value or range where N>1, read-out: EC50
[2] = 5 mM glucose, single value or range where N>1

| EC50 [1] [µM] | Emax [2] [%] | SMILES | EC50 [µM] |
| --- | --- | --- | --- |
| 2.6 to 4.2 | 121 to 140 | O=C(Nc1cnc([C@H](O)CO)cn1)[C@H](CC1CCCC1)n1cnc(C(F)(F)F)c1 [Example 50, (S)-3-cyclopentyl-N-(5-((S)-1,2-dihydroxyethyl)pyrazin-2-yl)-2-(4-(trifluoromethyl)-1H-imidazol-1-yl)propanamide] |  |
| 0.4 | 120 | Cc1ccc(NC(=O)[C@H](CC2CCCC2)n2cc(C(F)(F)F)nc2C)nc1 [Example 91, (S)-3-cyclopentyl-2-(2-methyl-4-(trifluoromethyl)-1H-imidazol-1-yl)-N-(5-methylpyridin-2-yl)propanamide] |  |
| 32 | 110 | CCn1ccc(NC(=O)[C@H](CC2CCCC2)n2cc(S(C)(=O)=O)cn2)n1 [Example 11, (S)-3-cyclopentyl-N-(1-ethyl-1H-pyrazol-3-yl)-2-(4-(methylsulfonyl)-1H-pyrazol-1-yl)propanamide] |  |
| 33 | 89 | Cn1ccc(NC(=O)[C@H](CC2CCCC2)n2cnc(S(C)(=O)=O)n2)n1 [Example 26, (S)-3-cyclopentyl-N-(1-methyl-1H-pyrazol-3-yl)-2-(3-(methylsulfonyl)-1H-1,2,4-triazol-1-yl)propanamide] |  |
| 4.8 to 5.6 | 70 to 76 | Cc1cnc(NC(=O)[C@H](CC2CCCC2)n2cc(S(=O)(=O)C(C)C)cn2)cn1 [Example 6, (S)-3-cyclopentyl-2-(4-(isopropylsulfonyl)-1H-pyrazol-1-yl)-N-(5-methylpyrazin-2-yl)propanamide] |  |
| 32 | 86 | Cc1ccc(NC(=O)[C@H](CC2CCCC2)n2nnc(S(C)(=O)=O)n2)nc1 [Example 80, (S)-3-cyclopentyl-N-(5-methylpyridin-2-yl)-2-(5-(methylsulfonyl)-2H-tetrazol-2-yl)propanamide] |  |
| > 100 |  | CS(=O)(=O)c1cnn([C@@H](CC2CCCC2)C(=O)Nc2ccn(Cc3ccccc3)n2)c1 [Example 12, (S)—N-(1-benzyl-1H-pyrazol-3-yl)-3-cyclopentyl-2-(4-(methylsulfonyl)-1H-pyrazol-1-yl)propanamide] |  |
| 4 to 5.4 | 92 to 95 | Cc1ccc(NC(=O)[C@H](CC2CCCC2)n2cc(C)c(C(F)(F)F)n2)nc1 [Example 93, (S)-3-cyclopentyl-2-(4-methyl-3-(trifluoromethyl)-1H-pyrazol-1-yl)-N-(5-methylpyridin-2-yl)propanamide] |  |
| 9 to 16.5 | 84 to 90 | CC(C)S(=O)(=O)c1cnn([C@@H](CC2CCCC2)C(=O)Nc2cnccn2)c1 [Example 2, (S)-3-cyclopentyl-2-(4-(isopropylsulfonyl)-1H-pyrazol-1-yl)-N-(pyrazin-2-yl)propanamide] |  |
| 0.8 | 100 | Cc1ccc(NC(=O)[C@H](CC2CCCC2)n2cnc(S(C)(=O)=O)c2)nc1 [Example 35, (S)-3-cyclopentyl-N-(5-methylpyridin-2-yl)-2-(4-(methylsulfonyl)-1H-imidazol-1-yl)propanamide] |  |
| 23 | 125 | Cn1ccc(NC(=O)[C@H](CC2CCCC2)n2cnc(S(C)(=O)=O)c2)n1 [Example 36, (S)-3-cyclopentyl-N-(1-methyl-1H-pyrazol-3-yl)-2-(4-(methylsulfonyl)-1H-imidazol-1-yl)propanamide] |  |
| 60 | 89 | CC(C)S(=O)(=O)c1cnn([C@@H](CC2CCCC2)C(=O)Nc2ccon2)c1 [Example 15, (S)-3-cyclopentyl-2-(4-(isopropylsulfonyl)-1H-pyrazol-1-yl)-N-(isoxazol-3-yl)propanamide] |  |
| 11 | 125 | CCS(=O)(=O)c1cn([C@@H](CC2CCCC2)C(=O)Nc2ccn(C)n2)cn1 [Example 31, (S)-3-cyclopentyl-2-(4-(ethylsulfonyl)-1H-imidazol-1-yl)-N-(1-methyl-1H-pyrazol-3-yl)propanamide] |  |
| 2.8 | 123 | Cc1ccc(NC(=O)[C@H](CC2CCCC2)n2cc(C(F)(F)F)c(C)n2)nc1 [Example 96, (S)-3-cyclopentyl-2-(3-methyl-4-(trifluoromethyl)-1H-pyrazol-1-yl)-N-(5-methylpyridin-2-yl)propanamide] |  |
| 0.4 | 110 | NC(=O)c1ccc(NC(=O)[C@H](CC2CCCC2)n2cnc(C(F)(F)F)c2)nc1 [Example 52, 6-[(S)-3-cyclopentyl-2-(4-trifluoromethyl-1H-imidazol-1-yl)-propionylamino]-nicotinamide] |  |
| 2.8 | 104 | CC(C)(O)C(=O)Nc1ccc(NC(=O)[C@H](CC2CCCC2)n2cnc(C(F)(F)F)c2)nc1 [Example 67, (S)-3-Cyclopentyl-N-[5-(2-hydroxy-2-methyl-propionylamino)-pyridin-2-yl]-2-(4-trifluoromethyl-imidazol-1-yl)-propionamide] |  |
| 62 | 236 | Cc1cnc(NC(=O)[C@H](CC2CCCC2)n2cnc(S(C)(=O)=O)c2)cn1 [Example 34, (S)-3-cyclopentyl-N-(5-methylpyrazin-2-yl)-2-(4-(methylsulfonyl)-1H-imidazol-1-yl)propanamide] |  |
| 3.8 | 100 | Cc1ccc(NC(=O)[C@H](CC2CCCC2)n2cc(S(C)(=O)=O)cn2)nc1 [Example 8, (S)-3-cyclopentyl-N-(5-methylpyridin-2-yl)-2-(4-(methylsulfonyl)-1H-pyrazol-1-yl)propanamide] |  |
| > 30 |  | CN(C)C(=O)c1cnn([C@@H](CC2CCCC2)C(=O)Nc2ccn(C)n2)c1 [Example 71, (S)-1-(3-cyclopentyl-1-(1-methyl-1H-pyrazol-3-ylamino)-1-oxopropan-2-yl)-N,N-dimethyl-1H-pyrazole-4-carboxamide] |  |
| 8.2 | 23 | CC(C)S(=O)(=O)c1cnn([C@@H](CC2CCCC2)C(=O)Nc2ccc3ccccc3n2)c1 [Example 17, (S)-3-cyclopentyl-2-(4-(isopropylsulfonyl)-1H-pyrazol-1-yl)-N-(quinolin-2-yl)propanamide] |  |
| > 100 |  | Cc1ccc(NC(=O)[C@H](CC2CCCC2)n2cnc(S(=O)(=O)C(C)C)c2)nc1 [Example 28, (S)-3-cyclopentyl-2-(4-(isopropylsulfonyl)-1H-imidazol-1-yl)-N-(5-methylpyridin-2-yl)propanamide] |  |
| 55 | 174 | Cn1ccc(NC(=O)[C@H](CC2CCCC2)n2cc(S(C)(=O)=O)cn2)n1 [Example 9, (S)-3-cyclopentyl-N-(1-methyl-1H-pyrazol-3-yl)-2-(4-(methylsulfonyl)-1H-pyrazol-1-yl)propanamide] |  |

| SMILES | EC50 [1] [µM] | Emax [2] [%] | EC50 [µM] |
| --- | --- | --- | --- |
| CCOP(=O)(OCC)c1ccc(NC(=O)[C@H](CC2CCCC2)n2cnc(C(F)(F)F)c2)nc1 [Example 59, (S)-diethyl 6-(3-cyclopentyl-2-(4-(trifluoromethyl)-1H-imidazol-1-yl)propanamido)pyridin-3-ylphosphonate] |  | 81 | 14 |
| CCOP(=O)(Cc1ccc(NC(=O)[C@H](CC2CCCC2)n2cnc(C(F)(F)F)c2)nc1)OCC [Example 58, (S)-diethyl(6-(3-cyclopentyl-2-(4-(trifluoromethyl)-1H-imidazol-1-yl)propanamido)pyridin-3-yl)methylphosphonate] |  | 129 | 3.4 |

Reference: patent US8389552B2, “(S)-6-(2-(4-(cyclobutylsulfonyl)-1H-imidazol-1-yl)-3-cyclopentylpropanamido)nicotinic acid useful as a glucokinase activator” (Pfizer Inc., priority 2009, dated 2013)
